Test results as given in US20070231375A1, “Liposome combination and the use thereof” (Taipei Medical University, priority 2006, published 2007).

Assays:
A431 cells = assay: MTT Assay-2 (A431); format: cell-based; details: 0.5 μg/ml Doxorubicin, no light
Method: A431 or CL1-5 cells (approx. 5000 cells) were seeded in each well of a 96-well plate and incubated in medium. After 24 hr of incubation, Doxorubicin (FD), Liposomal-Doxorubicin (LD) and Liposomal-Doxorubicin-Hematoporphyrin (LDH) was added into each well and drug concentration was set at 0.5 μg/ml Doxorubicin and 0.3 μg/ml Hp, After 2 hr, the cells of experiment group were illuminated for 10, 20, or 30 J/cm^2, and MTT assay was performed 72 hr later.

CL1-0 cells = assay: MTT Assay-2 (CL1-0); format: cell-based; details: 0.5 μg/ml Doxorubicin; no light

For `COc1cccc2c1C(=O)c1c(O)c3c(c(O)c1C2=O)C[C@@](O)(C(=O)CO)C[C@@H]3O[C@H]1C[C@H](N)[C@H](O)[C@H](C)O1` [FD, Doxorubicin], which “toxicity to cell A431 (in words)” value (A431 cells) is on record?
Its value is “has toxicity to cell A431 significantly”.

And the “activity of mitochondia dehydrogenase (of control group)” value (A431 cells; A431, 0.3 μg/ml Hp, MTT 72 hr)?
The value was “about 30%”.

What about the “toxicity to cell CL1-0 (in words)” value (CL1-0 cells) of the same compound?
The value was “has toxicity to cell CL1-0 significantly”.
